Results on 10 molecules are retold here after PMC6007963, “An ^18F-Labeled Poly(ADP-ribose) Polymerase Positron Emission Tomography Imaging Agent” (Journal of Medicinal Chemistry, 2018).

On the set-up of data set [1]: method as in PMID 26493053. The following applies: at 120 min; cited from earlier work.
The target of data set [2] is T1, PARP in U87MG-Luc2 human glioblastoma xenografts (Homo sapiens, UniProt P09874).
T1 construct: from tissue; host or cells: subcutaneous U87MG-Luc2 human glioblastoma xenograft in female CD1 nude mice
The experiment in a line: ex vivo biodistribution with preblockade by nonradioactive 1. It counts as in vivo, mouse. The protocol: To establish the specificity of [^18F]20 for PARP in bone and tumor tissue, further biodistribution studies were performed on subcutaneous U87MG-Luc2 glioblastoma bearing mice that had PARP binding sites blocked by pretreatment with nonradioactive compound 1 at a dose of 50 mg/kg 20 min prior to [^18F]20 administration. […] This supports the earlier proposed possibility of in vivo [^18F]20 defluorination, leading to free radiofluoride accumulation in the bone.
(§1) U87MG-Luc2 glioblastoma cell culture and implantation procedures were performed as reported previously.[19] Briefly, U87MG-Luc2 cells were purchased commercially from ATCC and cultured in minimum essential media that has been supplemented with 10% w/v fetal calf serum and 2 mM L-glutamine at 37 °C and 5% v/v CO2. Unconscious female CD1 nude mice (6–11 week old; purchased from Charles River Laboratories) had 5 × 10^6 U87MG-Luc2 cells injected subcutaneously into the right flank. The resulting tumor xenografts were measured and monitored visually every 3 days, and tumor-bearing animals were used for in vivo studies 28–30 days post-implantation.
(§2) Subcutaneous tumor bearing mice were administered 1.8–2.6 MBq of [^18F]20 in 0.11–0.21 mL of 5% v/v DMSO in 0.9% saline via bolus tail-vein injections. The remainder of the experiment was conducted as described previously.[19]

Data set [3] relates to U87MG-Luc2 human glioblastoma tumor xenografts. The experiment in a line: ex vivo biodistribution in subcutaneous U87MG-Luc2 glioblastoma bearing nude mice. The arrangement: species or system mouse. The protocol:
Following successful optimization of the radiochemistry, the behavior of [^18F]20 was investigated in vivo in mice bearing subcutaneous U87MG-Luc2 human glioblastoma tumor xenografts using ex vivo biodistribution and PET–MR imaging techniques. Ex vivo biodistribution of [^18F]20 was established at 30, 60, and 120 min after intravenous radiotracer administration, and PET data were acquired by performing a 45 min dynamic scan. […] This is in contrast to observations made by Carney et al., who reported <2%ID/g of bone of [^18F]8 at 120 min.[34] The high bone uptake seen with [^18F]20 could be explained by in vivo defluorination and subsequent radiofluoride accumulation in bone tissue.[35] Despite this, apparent radiotracer tumor uptake was identified in both biodistribution and PET–MR imaging experiments (Figures 3a,c), whereas in the case of the former, the mean ratio of %ID/g of glioblastoma tumor to muscle increased from 1.9 ± 0.5 (n = 4) to 3.6 ± 0.5 (n = 4) between the 30 and 120 min time points.
as §1, §2

Data set [4] can be described thus: lipophilicity (log Poct) by C-18 reverse-phase HPLC. It counts as physicochemical. The following applies: C-18 reverse-phase HPLC column.
Data set [5] addresses human serum albumin (Homo sapiens, UniProt P02768). The experiment in a line: percentage plasma protein binding by human serum albumin coated HPLC column. In kind it is in vitro ADME. The following applies: for fraction unbound: human, read-out: %PPB (converted).
The nature of data set [6]: intrinsic clearance in human liver microsomes. Conditions: for microsomal CLint: human, liver microsomes. In kind it is in vitro ADME. The text has this: (§3) However, these were still within the optimal range for a nuclear imaging agent. […] Collectively, the optimal physiochemical properties and low nanomolar PARP cell-free and cellular IC50 values supported further investigation of 20 as a potential radiotracer for PARP. In the body, radiotracers can be exposed to a number of metabolic pathways, including blood plasma hydrolysis and liver functionalization or conjugation reactions that can have a significant effect on the kinetic properties of the tracer and, subsequently its usefulness in nuclear imaging. With this in mind, the in vitro plasma and liver microsome stability of lead candidate 20 were established by incubating the compound in mouse plasma proteins and human liver microsome enzymes, respectively, using previously described methodologies.[19]

The target of data set [7] is PARP-1 (Homo sapiens, UniProt P09874). The experiment in a line: cell-free PARP-1 IC50 assay (colorimetric dose-response).
The nature of data set [8]: mouse plasma stability. It counts as in vitro ADME.
Source text: as §3

Where [9] appears, read: experiment 1, read-out: Clint, experiment 1.
Where [10] appears, read: experiment 2, read-out: Clint, experiment 2.

pIC50: −log10 of the molar value. Where two headings read alike, the source gives them in different places.

human serum albumin, sequence (P02768 25-609): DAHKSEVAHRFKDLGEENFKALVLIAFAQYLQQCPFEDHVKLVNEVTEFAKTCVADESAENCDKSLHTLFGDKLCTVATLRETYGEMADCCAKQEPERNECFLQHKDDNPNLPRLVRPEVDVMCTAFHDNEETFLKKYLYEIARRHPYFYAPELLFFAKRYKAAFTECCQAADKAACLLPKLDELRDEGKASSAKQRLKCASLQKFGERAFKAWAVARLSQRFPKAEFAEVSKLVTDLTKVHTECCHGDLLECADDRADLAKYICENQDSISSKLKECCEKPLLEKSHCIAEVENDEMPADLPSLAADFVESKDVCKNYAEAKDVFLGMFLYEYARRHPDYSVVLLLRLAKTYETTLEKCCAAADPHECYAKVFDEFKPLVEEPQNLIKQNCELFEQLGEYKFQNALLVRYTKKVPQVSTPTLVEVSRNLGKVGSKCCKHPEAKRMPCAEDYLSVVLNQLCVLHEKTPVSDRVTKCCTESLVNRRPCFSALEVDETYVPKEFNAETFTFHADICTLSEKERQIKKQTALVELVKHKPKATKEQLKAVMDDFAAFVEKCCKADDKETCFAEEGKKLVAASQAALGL
T1 sequence (P09874 whole entry): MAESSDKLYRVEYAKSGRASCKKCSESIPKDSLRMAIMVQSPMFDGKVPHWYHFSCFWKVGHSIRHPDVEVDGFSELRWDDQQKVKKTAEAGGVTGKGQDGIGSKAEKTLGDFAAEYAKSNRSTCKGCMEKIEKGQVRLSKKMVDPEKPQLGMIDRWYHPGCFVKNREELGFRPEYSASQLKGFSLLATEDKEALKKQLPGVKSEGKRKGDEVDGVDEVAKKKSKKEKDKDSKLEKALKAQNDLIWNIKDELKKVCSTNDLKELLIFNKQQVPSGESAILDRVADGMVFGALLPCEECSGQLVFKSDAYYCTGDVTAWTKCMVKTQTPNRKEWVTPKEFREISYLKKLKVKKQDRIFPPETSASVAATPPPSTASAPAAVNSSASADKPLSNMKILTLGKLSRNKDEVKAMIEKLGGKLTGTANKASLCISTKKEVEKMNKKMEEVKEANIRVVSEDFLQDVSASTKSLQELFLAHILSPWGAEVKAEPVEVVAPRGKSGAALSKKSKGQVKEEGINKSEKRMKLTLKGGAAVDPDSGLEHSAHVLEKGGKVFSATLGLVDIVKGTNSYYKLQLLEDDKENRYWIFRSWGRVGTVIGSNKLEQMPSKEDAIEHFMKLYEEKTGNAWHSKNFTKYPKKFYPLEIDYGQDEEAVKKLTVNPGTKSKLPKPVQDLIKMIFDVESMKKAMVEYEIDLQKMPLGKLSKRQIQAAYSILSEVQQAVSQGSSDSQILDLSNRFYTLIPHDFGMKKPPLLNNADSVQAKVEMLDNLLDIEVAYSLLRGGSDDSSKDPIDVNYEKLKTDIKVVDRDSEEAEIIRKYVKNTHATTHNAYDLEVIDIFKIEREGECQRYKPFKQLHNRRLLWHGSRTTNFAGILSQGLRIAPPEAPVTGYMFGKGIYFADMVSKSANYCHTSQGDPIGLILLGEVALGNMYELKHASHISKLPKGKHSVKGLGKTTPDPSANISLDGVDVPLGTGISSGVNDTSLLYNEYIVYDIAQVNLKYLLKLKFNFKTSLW
PARP-1, sequence (P09874 whole entry, species assumed): as the sequence (P09874 whole entry) above

`O=C(c1ccc([18F])cc1)N1CCN(C(=O)c2cc(Cc3n[nH]c(=O)c4ccccc34)ccc2F)CC1` [[^18F]8]: the “%ID/g of bone” value in data set [1] is listed as < 2 %ID/g.
For the molecule `O=C(c1ccc(C[18F])cc1)N1CCN(C(=O)c2cc(Cc3n[nH]c(=O)c4ccccc34)ccc2F)CC1` [[^18F]20], in data set [2] (60 min after [18F]20 administration, 50 mg/kg of 1 given 20 min prior, P < 0.05 vs vehicle), the “ratio of %ID/g of tumor to muscle, preblockade using 1” value amounted to 1.07 ± 0.15. Moreover, the “ratio of %ID/g of tumor to muscle, vehicle-pretreated mice” value in data set [2] (60 min after [18F]20 administration, vehicle pretreatment) is given as 1.79 ± 0.39. Besides, the “uptake in bone tissue in presence of excess nonradioactive 1” value in data set [2] (60 min after radioligand administration, 50 mg/kg of 1 pretreatment) was “not influenced”. The “mean ratio of %ID/g of glioblastoma tumor to muscle, 30 min” value in data set [3] (30 min after intravenous injection, n = 4) was 1.9 ± 0.5. The “mean ratio of %ID/g of glioblastoma tumor to muscle, 120 min” value in data set [3] (120 min after intravenous injection, n = 4) was found to be 3.6 ± 0.5. For the same molecule, the “mean percentage of injected dose per gram (%ID/g) of femur tissue” value in data set [3] (across 30, 60 and 120 min after intravenous tracer administration) is > 8.5%.
Take `O=C(c1cc(Cc2n[nH]c(=O)c3ccccc23)ccc1F)N1CCN(C(=O)C2CC2)CC1` [compound 1, olaparib, reference compound]: the chromatographic logP (commonly lipophilicity estimated from chromatographic retention) in data set [4] worked out at 1.95. In data set [5], the “%PPB” value turned out to be 75.9%. Besides, the microsomal CLint was 23 µL/min/mg in data set [6] (setting [9]) and 34 µL/min/mg in data set [6] (setting [10]).
Molecule `O=C(c1ccc(F)cc1)N1CCN(C(=O)c2cc(Cc3n[nH]c(=O)c4ccccc34)ccc2F)CC1` [compound 8, 4-[3′-[4″-(4‴-Fluorobenzoyl)piperazine-1″-carbonyl]-4′-fluorobenzyl]-2H-phthalazin-1-one] displayed a chromatographic logP in data set [4] of 2.51. Besides, the fraction unbound in data set [5] was 0.141.
With `O=C(c1ccccc1F)N1CCN(C(=O)c2cc(Cc3n[nH]c(=O)c4ccccc34)ccc2F)CC1` [compound 9, 4-[3′-[4″-(2‴-Fluorobenzoyl)piperazine-1″-carbonyl]-4′-fluorobenzyl]-2H-phthalazin-1-one], in data set [4], the chromatographic logP is 2.46. In addition, in data set [7], the pIC50 (usually the IC50 on a negative log10 scale, so that one unit is a factor of ten) is 8.44. The fraction unbound in data set [5] is 0.136.
`Cc1cc(F)ccc1C(=O)N1CCN(C(=O)c2cc(Cc3n[nH]c(=O)c4ccccc34)ccc2F)CC1` [compound 10, 4-[3′-[4″-(4‴-Fluoro-2‴-methylbenzoyl)piperazine-1″-carbonyl]-4′-fluorobenzyl]-2H-phthalazin-1-one] returned a chromatographic logP in data set [4] of 2.66. Also, the negative-log IC50 (pIC50) in data set [7] was 8.54. For the same molecule, in data set [5], the fraction unbound is 0.139.
In the case of `O=C(Cc1ccc(F)cc1)N1CCN(C(=O)c2cc(Cc3n[nH]c(=O)c4ccccc34)ccc2F)CC1` [compound 11, 4-[3′-[4″-[(4‴-Fluorophenyl)acetyl]piperazine-1″-carbonyl]-4′-fluorobenzyl]-2H-phthalazin-1-one], the chromatographic logP in data set [4] worked out at 2.67. This molecule also had a negative-log IC50 (pIC50) in data set [7] of 8.89. Further, in data set [5], the fraction unbound was 0.101.
Take `O=C(CCC(=O)N1CCN(C(=O)c2cc(Cc3n[nH]c(=O)c4ccccc34)ccc2F)CC1)c1ccc(F)cc1` [compound 12, 4-[3′-[4′′′′′-[(4‴-Fluorophenyl)butane-1′′′′,4′′′′-dione]-piperazine-1‴-carbonyl]4″-fluorobenzyl]-2H-phthalazin-1-one]: the chromatographic logP in data set [4] turned out to be 2.81. For the same molecule, the pIC50 in data set [7] was 8.39. Also, the fraction unbound in data set [5] is 0.094.
In turn, `O=C(c1cc(Cc2n[nH]c(=O)c3ccccc23)ccc1F)N1CCN(Cc2ccc(F)cc2)CC1` [compound 13, 4-[3′-[4″-(4‴-Fluorobenzyl)piperazine-1″-carbonyl]-4′-fluorobenzyl]-2H-phthalazin-1-one] gave a chromatographic logP in data set [4] of 3.14. In addition, the pIC50 in data set [7] is 7.95. Besides, in data set [5], the fraction unbound was 0.053.
`O=C(c1ccc(CF)cc1)N1CCN(C(=O)c2cc(Cc3n[nH]c(=O)c4ccccc34)ccc2F)CC1` [compound 20] displayed a chromatographic logP in data set [4] of 2.51. For the same molecule, the “stability in mouse plasma” value in data set [8] (20 h incubation in mouse plasma) is listed as “negligible decomposition”. Besides, in data set [8] (mean percentage of parent compound remaining after 20 h incubation in mouse plasma), the “plasma stability, 20 h” value is 95%. In addition, the “plasma stability, 0 h” value in data set [8] (mean percentage of parent compound remaining, mouse plasma, 0 h) is on record as 93%. For the same molecule, in data set [7], the pIC50 was 8.70. Besides, the “cell-free IC50 fold less than that of 1” value in data set [7] (compared with 1) worked out at 6 fold. The “cell-free IC50 fold less than that of 8” value in data set [7] (compared with 8) was 3 fold. The fraction unbound in data set [5] is 0.107. Moreover, the “intrinsic clearance fold greater in comparison to 1” value in data set [6] (compared with 1) is reported as “approximately 3 fold”. Besides, the figures for the microsomal CLint in data set [6] (setting [9]) and in data set [6] (setting [10]) were 74 µL/min/mg and 90 µL/min/mg, respectively.
